The record followed here is patent US8012956B2, “Tropane compounds” (Exelixis, Inc., priority 2007, dated 2011).

This assay concerns the target HSP90 (Homo sapiens, UniProt P07900). Put plainly: HSP90 inhibition (HSP90 IC50). In kind it is biochemical.
Take `CCC(CC)Nc1cc(C(=O)NC2CC3CCC(C2)N3c2ccc(C(=O)N[C@@H]3CCN(C(C)C)C3)cn2)ccc1C(N)=O` (stereo partly drawn) [2-[(1-ethylpropyl)amino]-N4-{8-[5-({[(3R)-1-(1-methylethyl)pyrrolidin-3-yl]amino}carbonyl)pyridin-2-yl]-8-azabicyclo[3.2.1]oct-3-endo-yl}benzene-1,4-dicarboxamide]: the IC50 was less than 500 nM.

In turn, `CCC(CC)Nc1cc(C(=O)NC2CC3CCC(C2)N3c2ccc(C(=O)N[C@@H]3CCN(CC)C3)cn2)ccc1C(N)=O` (stereo partly drawn) [2-[(1-ethylpropyl)amino]-N4-{8-[5-({[(3R)-1-ethylpyrrolidin-3-yl]amino}carbonyl)pyridin-2-yl]-8-azabicyclo[3.2.1]oct-3-endo-yl}benzene-1,4-dicarboxamide] displayed an IC50 of less than 500 nM. For `CCC(CC)Nc1cc(C(=O)NC2CC3CCC(C2)N3c2ccc(C(=O)N[C@H]3CCN(C(C)C)C3)cn2)ccc1C(N)=O` (stereo partly drawn) [2-[(1-ethylpropyl)amino]-N4-{8-[5-({[(3S)-1-(1-methylethyl)pyrrolidin-3-yl]amino}carbonyl)pyridin-2-yl]-8-azabicyclo[3.2.1]oct-3-endo-yl}benzene-1,4-dicarboxamide] the value was less than 500 nM.

On to `C[C@H](NC(=O)c1ccc(N2C3CCC2CC(NC(=O)c2ccc(C(N)=O)c(N[C@H]4CC[C@H](O)CC4)c2)C3)nc1)c1ccc(N2CCN(C)CC2)cc1` (stereo partly drawn) [2-[(4-hydroxycyclohexyl)amino]-N4-(8-{5-[({(1S)-1-[4-(4-methylpiperazin-1-yl)phenyl]ethyl}amino)carbonyl]pyridin-2-yl}-8-azabicyclo[3.2.1]oct-3-endo-yl)benzene-1,4-dicarboxamide], for which the IC50 is less than 500 nM. With `CC(C)N1CC[C@@H](NC(=O)c2ccc(N3C4CCC3CC(NC(=O)c3ccc(C(N)=O)c(N[C@H]5CC[C@H](O)CC5)c3)C4)nc2)C1` (stereo partly drawn) [2-[(4-trans-hydroxycyclohexyl)amino]-N4-{8-[5-({[1-(1-methylethyl)pyrrolidin-3-yl]amino}carbonyl)pyridin-2-yl]-8-azabicyclo[3.2.1]oct-3-endo-yl}benzene-1,4-dicarboxamide] the figure was less than 500 nM. With `NC(=O)c1ccc(C(=O)N[C@H]2C[C@H]3CC[C@@H](C2)N3c2ccc(C(=O)CCNc3ccc(F)cc3)cn2)cc1NCC1CC1` [2-[(cyclopropylmethyl)amino]-N4-(8-{5-(N-(4-fluorophenyl)-beta-alanyl]pyridin-2-yl}-8-azabicyclo[3.2.1]oct-3-endo-yl)benzene-1,4-dicarboxamide] the figure was 2000 to 10000 nM; with `CN1CCC(CCC(=O)c2ccc(N3[C@@H]4CC[C@H]3C[C@@H](NC(=O)c3ccc(C(N)=O)c(NCC5CC5)c3)C4)nc2)CC1` [2-[(cyclopropylmethyl)amino]-N4-(8-{5-[3-(1-methylpiperidin-4-yl)propanoyl]pyridin-2-yl}-8-azabicyclo[3.2.1]oct-3-endo-yl)benzene-1,4-dicarboxamide], less than 500 nM.

In turn, `CN1CCN(CCC(=O)c2ccc(N3[C@@H]4CC[C@H]3C[C@@H](NC(=O)c3ccc(C(N)=O)c(NCC5CC5)c3)C4)nc2)CC1` [2-[(cyclopropylmethyl)amino]-N4-(8-{5-[3-(4-methylpiperazin-1-yl)propanoyl]pyridin-2-yl}-8-azabicyclo[3.2.1]oct-3-endo-yl)benzene-1,4-dicarboxamide] gave an IC50 of less than 500 nM. Consider `NC(=O)c1ccc(C(=O)N[C@H]2C[C@H]3CC[C@@H](C2)N3c2ccc(C(=O)CCN3CCN(c4ccccc4)CC3)cn2)cc1NCC1CC1` [2-[(cyclopropylmethyl)amino]-N4-(8-{5-[3-(4-phenylpiperazin-1-yl)propanoyl]pyridin-2-yl}-8-azabicyclo[3.2.1]oct-3-endo-yl)benzene-1,4-dicarboxamide], for which the IC50 lay within 500 to 999 nM. With `CCOCCC(=O)c1ccc(N2[C@@H]3CC[C@H]2C[C@@H](NC(=O)c2ccc(C(N)=O)c(NCC4CC4)c2)C3)nc1` [2-[(cyclopropylmethyl)amino]-N4-(8-{5-[3-(ethyloxy)propanoyl]pyridin-2-yl}-8-azabicyclo[3.2.1]oct-3-endo-yl)benzene-1,4-dicarboxamide], the IC50 was less than 500 nM. With `COCCC(=O)c1ccc(N2[C@@H]3CC[C@H]2C[C@@H](NC(=O)c2ccc(C(N)=O)c(NCC4CC4)c2)C3)nc1` [2-[(cyclopropylmethyl)amino]-N4-(8-{5-[3-(methyloxy)propanoyl]pyridin-2-yl}-8-azabicyclo[3.2.1]oct-3-endo-yl)benzene-1,4-dicarboxamide] the figure was less than 500 nM; with `C[C@H](NC(=O)c1ccc(N2C3CCC2CC(NC(=O)c2ccc(C(N)=O)c(NCC4CC4)c2)C3)nc1)c1ccc(N2CCN(C)CC2)cc1` (stereo partly drawn) [2-[(cyclopropylmethyl)amino]-N4-(8-{5-[({(1S)-1-[4-(4-methylpiperazin-1-yl)phenyl]ethyl}amino)carbonyl]pyridin-2-yl}-8-azabicyclo[3.2.1]oct-3-endo-yl)benzene-1,4-dicarboxamide], less than 500 nM; with `CCC(=O)c1ccc(N2[C@@H]3CC[C@H]2C[C@@H](NC(=O)c2ccc(C(N)=O)c(NCC4CC4)c2)C3)nc1` [2-[(cyclopropylmethyl)amino]-N4-[8-(5-propanoylpyridin-2-yl)-8-azabicyclo[3.2.1]oct-3-endo-yl]benzene-1,4-dicarboxamide], less than 500 nM. Regarding `CON(C)C(=O)c1ccc(N2[C@@H]3CC[C@H]2C[C@@H](NC(=O)c2ccc(C(N)=O)c(NCC4CC4)c2)C3)nc1` [2-[(cyclopropylmethyl)amino]-N4-[8-(5-{[methyl(methyloxy)amino]carbonyl}pyridin-2-yl)-8-azabicyclo[3.2.1]oct-3-endo-yl]benzene-1,4-dicarboxamide], the IC50 lay in the range of 1000 to 2000 nM. For `NC(=O)c1ccc(C(=O)N[C@H]2C[C@H]3CC[C@@H](C2)N3c2ccc(C(=O)CCN3CCCCC3)cn2)cc1NCC1CC1` [2-[(cyclopropylmethyl)amino]-N4-{8-(5-(3-piperidin-1-ylpropanoyl)pyridin-2-yl]-8-azabicyclo[3.2.1]oct-3-endo-yl}benzene-1,4-dicarboxamide] the value was less than 500 nM; for `NC(=O)c1ccc(C(=O)NC2CC3CCC(C2)N3c2ccc(C(=O)CC(O)c3ccccc3)cn2)cc1NCC1CC1` (stereo not drawn) [2-[(cyclopropylmethyl)amino]-N4-{8-[5-(3-hydroxy-3-phenylpropanoyl)pyridin-2-yl]-8-azabicyclo[3.2.1]oct-3-endo-yl}benzene-1,4-dicarboxamide], 500 to 999 nM. `CC(C)C(O)CC(=O)c1ccc(N2[C@@H]3CC[C@H]2C[C@@H](NC(=O)c2ccc(C(N)=O)c(NCC4CC4)c2)C3)nc1` (stereo partly drawn) [2-[(cyclopropylmethyl)amino]-N4-{8-[5-(3-hydroxy-4-methylpentanoyl)pyridin-2-yl]-8-azabicyclo[3.2.1]oct-3-endo-yl}benzene-1,4-dicarboxamide]: the half-inhibitory concentration (IC50) was less than 500 nM.

Take `CC(C)CC(=O)c1ccc(N2[C@@H]3CC[C@H]2C[C@@H](NC(=O)c2ccc(C(N)=O)c(NCC4CC4)c2)C3)nc1` [2-[(cyclopropylmethyl)amino]-N4-{8-[5-(3-methylbutanoyl)pyridin-2-yl]-8-azabicyclo[3.2.1]oct-3-endo-yl}benzene-1,4-dicarboxamide]: the IC50 lay in the range of 1000 to 2000 nM. For `NC(=O)c1ccc(C(=O)N[C@H]2C[C@H]3CC[C@@H](C2)N3c2ccc(C(=O)CCN3CCOCC3)cn2)cc1NCC1CC1` [2-[(cyclopropylmethyl)amino]-N4-{8-[5-(3-morpholin-4-ylpropanoyl)pyridin-2-yl]-8-azabicyclo[3.2.1]oct-3-endo-yl}benzene-1,4-dicarboxamide] the value was less than 500 nM; for `NC(=O)c1ccc(C(=O)N[C@H]2C[C@H]3CC[C@@H](C2)N3c2ccc(C(=O)CCc3ccccc3)cn2)cc1NCC1CC1` [2-[(cyclopropylmethyl)amino]-N4-{8-[5-(3-phenylpropanoyl)pyridin-2-yl]-8-azabicyclo[3.2.1]oct-3-endo-yl}benzene-1,4-dicarboxamide], 2000 to 10000 nM; for `NC(=O)c1ccc(C(=O)N[C@H]2C[C@H]3CC[C@@H](C2)N3c2ccc(C(=O)CCC3CCNCC3)cn2)cc1NCC1CC1` [2-[(cyclopropylmethyl)amino]-N4-{8-[5-(3-piperidin-4-ylpropanoyl)pyridin-2-yl]-8-azabicyclo[3.2.1]oct-3-endo-yl}benzene-1,4-dicarboxamide], less than 500 nM. With `NC(=O)c1ccc(C(=O)N[C@H]2C[C@H]3CC[C@@H](C2)N3c2ccc(C(=O)CCN3CCCC3)cn2)cc1NCC1CC1` [2-[(cyclopropylmethyl)amino]-N4-{8-[5-(3-pyrrolidin-1-ylpropanoyl)pyridin-2-yl]-8-azabicyclo[3.2.1]oct-3-endo-yl}benzene-1,4-dicarboxamide] the figure was less than 500 nM; with `NC(=O)c1ccc(C(=O)N[C@H]2C[C@H]3CC[C@@H](C2)N3c2ccc(C(=O)CCC(F)(F)F)cn2)cc1NCC1CC1` [2-[(cyclopropylmethyl)amino]-N4-{8-[5-(4,4,4-trifluorobutanoyl)pyridin-2-yl]-8-azabicyclo[3.2.1]oct-3-endo-yl}benzene-1,4-dicarboxamide], 2000 to 10000 nM. For `CC(C)CCC(=O)c1ccc(N2[C@@H]3CC[C@H]2C[C@@H](NC(=O)c2ccc(C(N)=O)c(NCC4CC4)c2)C3)nc1` [2-[(cyclopropylmethyl)amino]-N4-{8-[5-(4-methylpentanoyl)pyridin-2-yl]-8-azabicyclo[3.2.1]oct-3-endo-yl}benzene-1,4-dicarboxamide] the value was less than 500 nM. `CN(C)CCC(=O)c1ccc(N2[C@@H]3CC[C@H]2C[C@@H](NC(=O)c2ccc(C(N)=O)c(NCC4CC4)c2)C3)nc1` [2-[(cyclopropylmethyl)amino]-N4-{8-[5-(N,N-dimethyl-beta-alanyl)pyridin-2-yl]-8-azabicyclo[3.2.1]oct-3-endo-yl}benzene-1,4-dicarboxamide] returned an IC50 of less than 500 nM. For `NC(=O)c1ccc(C(=O)N[C@H]2C[C@H]3CC[C@@H](C2)N3c2ccc(C(=O)CN3CCCCC3)cn2)cc1NCC1CC1` [2-[(cyclopropylmethyl)amino]-N4-{8-[5-(piperidin-1-ylacetyl)pyridin-2-yl]-8-azabicyclo[3.2.1]oct-3-endo-yl}benzene-1,4-dicarboxamide] the value was 2000 to 10000 nM.

Molecule `NC(=O)c1ccc(C(=O)N[C@H]2C[C@H]3CC[C@@H](C2)N3c2ccc(C(=O)C(F)(F)F)cn2)cc1NCC1CC1` [2-[(cyclopropylmethyl)amino]-N4-{8-[5-(trifluoroacetyl)pyridin-2-yl]-8-azabicyclo[3.2.1]oct-3-endo-yl}benzene-1,4-dicarboxamide] yielded an IC50 of 2000 to 10000 nM.

A word on the IC50: it is the point on the concentration scale where inhibition reaches its midpoint. Read a low IC50 as inhibition by little substance.
